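Abbreviation: GI50, concentration required for 50% inhibition of growth. The concentration for full growth arrest is given as TGI.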
Experiments:
Assay in all cases: NCI anticancer screen, dose series, 384-well format
786-0 renal = system: 786-0 renal
A498 renal = system: A498 renal
A549 NSCLC = system: A549 NSCLC
ACHN renal = system: ACHN renal
BT-549 breast = system: BT-549 breast
CAKI-1 renal = system: CAKI-1 renal
CCRF-CEM leukemia = system: CCRF-CEM leukemia
COLO 205 colon = system: COLO 205 colon
DU-145 prostate = system: DU-145 prostate
EKVX NSCLC = system: EKVX NSCLC
HCC-2998 colon = system: HCC-2998 colon
HCT-116 colon = system: HCT-116 colon
HCT-15 colon = system: HCT-15 colon
HL-60(TB) leukemia = system: HL-60(TB) leukemia
HOP-62 NSCLC = system: HOP-62 NSCLC
HOP-92 NSCLC = system: HOP-92 NSCLC
HS 578T breast = system: HS 578T breast
IGROV1 ovarian = system: IGROV1 ovarian
K-562 leukemia = system: K-562 leukemia
KM12 colon = system: KM12 colon
LOX IMVI melanoma = system: LOX IMVI melanoma
M14 melanoma = system: M14 melanoma
MALME-3M melanoma = system: MALME-3M melanoma
MCF7 breast = system: MCF7 breast
MDA-MB-231 breast = system: MDA-MB-231 breast
MDA-MB-435 melanoma = system: MDA-MB-435 melanoma
MDA-MB-468 breast = system: MDA-MB-468 breast
MOLT-4 leukemia = system: MOLT-4 leukemia
NCI-H226 lung = system: NCI-H226 lung
NCI-H23 lung = system: NCI-H23 lung
NCI-H322M lung = system: NCI-H322M lung
NCI-H460 NSCLC = system: NCI-H460 NSCLC
NCI-H522 lung = system: NCI-H522 lung
NCI/ADR-RES ovarian = system: NCI/ADR-RES ovarian
OVCAR-3 ovarian = system: OVCAR-3 ovarian
OVCAR-4 ovarian = system: OVCAR-4 ovarian
OVCAR-5 ovarian = system: OVCAR-5 ovarian
PC-3 prostate = system: PC-3 prostate
RPMI-8226 leukemia = system: RPMI-8226 leukemia
RXF 393 renal = system: RXF 393 renal
SF-268 CNS = system: SF-268 CNS
SF-295 CNS = system: SF-295 CNS
SF-539 CNS = system: SF-539 CNS
SK-MEL-2 melanoma = system: SK-MEL-2 melanoma
SK-MEL-28 melanoma = system: SK-MEL-28 melanoma
SK-MEL-5 melanoma = system: SK-MEL-5 melanoma
SK-OV-3 ovarian = system: SK-OV-3 ovarian
SN12C renal = system: SN12C renal
SNB-19 CNS = system: SNB-19 CNS
SNB-75 CNS = system: SNB-75 CNS
SR leukemia = system: SR leukemia
SW-620 colon = system: SW-620 colon
T-47D breast = system: T-47D breast
TK-10 renal = system: TK-10 renal
U251 glioblastoma = system: U251 glioblastoma
UACC-257 melanoma = system: UACC-257 melanoma
UACC-62 melanoma = system: UACC-62 melanoma
UO-31 renal = system: UO-31 renal

For `COc1ccc(C(=O)CC2(O)C(=O)Nc3c(Cl)ccc(Cl)c32)cc1` (stereo unspecified), the GI50 ([…]-0 renal) was 3.61 µM, the TGI (786-0 renal) was 21.7 µM and the GI50 (A498 renal) was 3.72 µM. It also gave a TGI (A498 renal) of 46.7 µM, a GI50 (A549 NSCLC) of 2100 nM and a TGI (A549 NSCLC) of over 100 µM. It also gave a GI50 (ACHN renal) of 7.9 µM, a TGI (ACHN renal) of over 100 µM and a GI50 (BT-549 breast) of 509 nM. For the same compound, the TGI (BT-549 breast) was 10.9 µM, the GI50 (CAKI-1 renal) was 679 nM and the TGI (CAKI-1 renal) was over 100 µM. The GI50 (CCRF-CEM leukemia) was 656 nM, the TGI (CCRF-CEM leukemia) was 1900 nM and the GI50 (COLO 205 colon) was 646 nM. It also gave a TGI (COLO 205 colon) of over 100 µM, a GI50 (DU-145 prostate) of 2790 nM and a TGI (DU-145 prostate) of 12.1 µM. It also gave a GI50 (EKVX NSCLC) of 3.81 µM, a TGI (EKVX NSCLC) of 52 µM and a GI50 (HCC-2998 colon) of 1800 nM. For the same compound, the TGI (HCC-2998 colon) was 36.2 µM, the GI50 (HCT-116 colon) was 568 nM and the TGI (HCT-116 colon) was 32.1 µM. It also gave a GI50 (HCT-15 colon) of 369 nM, a TGI (HCT-15 colon) of 14.4 µM and a GI50 (HL-60(TB) leukemia) of 237 nM. It also gave a TGI (HL-60(TB) leukemia) of 474 nM, a GI50 (HOP-62 NSCLC) of 1260 nM and a TGI (HOP-62 NSCLC) of 47.8 µM. The GI50 (HOP-92 NSCLC) was 9.02 µM, the TGI (HOP-92 NSCLC) was 54.5 µM and the GI50 (HS 578T breast) was 1090 nM. For the same compound, the TGI (HS 578T breast) was 2760 nM, the GI50 (IGROV1 ovarian) was 2780 nM and the TGI (IGROV1 ovarian) was over 100 µM. The GI50 (K-562 leukemia) was 354 nM, the TGI (K-562 leukemia) was 1650 nM and the GI50 (KM12 colon) was 467 nM. The TGI (KM12 colon) was 25.6 µM, the GI50 (LOX IMVI melanoma) was 4.44 µM and the TGI (LOX IMVI melanoma) was 21 µM. The GI50 (M14 melanoma) was 529 nM, the TGI (M14 melanoma) was 2570 nM and the GI50 (MALME-3M melanoma) was 13.9 µM. For the same compound, the TGI (MALME-3M melanoma) was 45.4 µM, the GI50 (MCF7 breast) was 1070 nM and the TGI (MCF7 breast) was 21 µM. For the same compound, the GI50 (MDA-MB-231 breast) was 13.2 µM, the TGI (MDA-MB-231 breast) was over 100 µM and the GI50 (MDA-MB-435 melanoma) was 207 nM. The TGI (MDA-MB-435 melanoma) was 431 nM, the GI50 (MDA-MB-468 breast) was 215 nM and the TGI (MDA-MB-468 breast) was 571 nM. It also gave a GI50 (MOLT-4 leukemia) of 216 nM, a TGI (MOLT-4 leukemia) of 426 nM and a GI50 (NCI-H226 lung) of 6.25 µM. For the same compound, the TGI (NCI-H226 lung) was 50 µM, the GI50 (NCI-H23 lung) was 1970 nM and the TGI (NCI-H23 lung) was 12.1 µM. The GI50 (NCI-H322M lung) was 5.82 µM, the TGI (NCI-H322M lung) was over 100 µM and the GI50 (NCI-H460 NSCLC) was 477 nM. It also gave a TGI (NCI-H460 NSCLC) of 2480 nM, a GI50 (NCI-H522 lung) of 264 nM and a TGI (NCI-H522 lung) of 587 nM. The GI50 (NCI/ADR-RES ovarian) was 346 nM, the TGI (NCI/ADR-RES ovarian) was 1360 nM and the GI50 (OVCAR-3 ovarian) was 382 nM. The TGI (OVCAR-3 ovarian) was 1250 nM, the GI50 (OVCAR-4 ovarian) was 8.8 µM and the TGI (OVCAR-4 ovarian) was 85.6 µM. For the same compound, the GI50 (OVCAR-5 ovarian) was 9.83 µM, the TGI (OVCAR-5 ovarian) was over 100 µM and the GI50 (PC-3 prostate) was 2270 nM. The TGI (PC-3 prostate) was over 100 µM, the GI50 (RPMI-8226 leukemia) was 1170 nM and the TGI (RPMI-8226 leukemia) was 2560 nM. The GI50 (RXF 393 renal) was 960 nM, the TGI (RXF 393 renal) was 5.08 µM and the GI50 (SF-268 CNS) was 10.6 µM. For the same compound, the TGI (SF-268 CNS) was 31.3 µM, the GI50 (SF-295 CNS) was 1550 nM and the TGI (SF-295 CNS) was 8.41 µM. The GI50 (SF-539 CNS) was 1680 nM, the TGI (SF-539 CNS) was 5.35 µM and the GI50 (SK-MEL-2 melanoma) was 864 nM. The TGI (SK-MEL-2 melanoma) was 3.02 µM, the GI50 (SK-MEL-28 melanoma) was 15.9 µM and the TGI (SK-MEL-28 melanoma) was over 100 µM. The GI50 (SK-MEL-5 melanoma) was 663 nM, the TGI (SK-MEL-5 melanoma) was 5.85 µM and the GI50 (SK-OV-3 ovarian) was 2560 nM. For the same compound, the TGI (SK-OV-3 ovarian) was 95.6 µM, the GI50 (SN12C renal) was 3.28 µM and the TGI (SN12C renal) was 20.8 µM. The GI50 (SNB-19 CNS) was 2320 nM, the TGI (SNB-19 CNS) was 32.8 µM and the GI50 (SNB-75 CNS) was 2260 nM. The TGI (SNB-75 CNS) was 15.8 µM, the GI50 (SR leukemia) was 113 nM and the TGI (SR leukemia) was 256 nM. For the same compound, the GI50 (SW-620 colon) was 452 nM, the TGI (SW-620 colon) was over 100 µM and the GI50 (T-47D breast) was 9.17 µM. It also gave a TGI (T-47D breast) of 52 µM, a GI50 (TK-10 renal) of 1360 nM and a TGI (TK-10 renal) of over 100 µM. For the same compound, the GI50 (U251 glioblastoma) was 1130 nM, the TGI (U251 glioblastoma) was 12.5 µM and the GI50 (UACC-257 melanoma) was 6.69 µM. For the same compound, the TGI (UACC-257 melanoma) was 21.6 µM, the GI50 (UACC-62 melanoma) was 380 nM and the TGI (UACC-62 melanoma) was 4.27 µM. The GI50 (UO-31 renal) was 8.45 µM and the TGI (UO-31 renal) was over 100 µM.

From PubChem BioAssay (NCI)
